Ten molecules from patent US20250179047A1, “5-[7-(3,4-DIHYDRO-1H-ISOQUINOLINE-2-CARBONYL)-1,2,3,4 TETRAHYDROISOQUINOLIN-6-YL]-1H-PYRROLE-3-CARBOXAMIDE DERIVATIVES, PHARMACEUTICAL COMPOSITIONS CONTAINING THEM AND THEIR USES AS PRO-APOPTOTIC AGENTS” (LES LABORATOIRES SERVIER, priority 2022, published 2025) can be followed below.

One assay addresses BCL2 WT (Homo sapiens (Human), UniProt P10415). Kind of assay: TR-FRET competitive binding assay, BCL2 WT. Conditions: Ki determined from IC50, read-out: TR_FRET EKI_Bcl2 WT. Put shortly: (§1)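 Terbium-labelled N-terminal Halo-fusion BCL2 or BCLXL (E. coli), 0.5 nM, competed against fluorescein-labelled PUMA peptide (2 or 20 nM) for 2 h at 23° C in 50 mM Hepes pH 7.5, 150 mM NaCl, 5% DMSO. TR-FRET 520/495 nm ratio gave IC50 by four-parameter fit; Ki derived from IC50.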
On the technique in general: Time-resolved FRET reads energy transfer from a long-lived donor to a nearby acceptor.

In assay [1] the test system is BCL2 G101V. Kind of assay: TR-FRET competitive binding assay, BCL2 G101V. Also on record: species or system human. Conditions: ratio Ki BCL2 G101V / Ki BCL2 WT. The method in brief:
as §1

Assay [2] concerns the target BCL2 G101V (Homo sapiens, UniProt P10415, G101V). Briefly: TR-FRET competitive binding assay, BCL2 G101V. Conditions: BCL2 G101V; Ki determined from IC50; read-out: TR_FRET EKI_Bcl2 G101V. The method in brief:
as §1

The next assay deals with BCL2 D103Y (Homo sapiens, UniProt P10415, D103Y). Briefly: TR-FRET competitive binding assay, BCL2 D103Y. Conditions: Ki determined from IC50, read-out: TR_FRET EKI_Bcl2 D103Y. Put shortly: as §1
The target in the next assay is BCLXL WT (Homo sapiens (Human), UniProt Q07817). Kind of assay: TR-FRET competitive binding assay, BCLXL WT. The following applies: for Ki: BCLXL WT, Ki determined from IC50, read-out: TR_FRET EKI BclxL; for TR_FRET EKI BCLxL/WT selectivty ratio: ratio Ki BCLxL / Ki BCL2 WT. The method in brief: as §1
BCLXL WT, sequence (Q07817 other isoform, or with tags, fused parts or gaps): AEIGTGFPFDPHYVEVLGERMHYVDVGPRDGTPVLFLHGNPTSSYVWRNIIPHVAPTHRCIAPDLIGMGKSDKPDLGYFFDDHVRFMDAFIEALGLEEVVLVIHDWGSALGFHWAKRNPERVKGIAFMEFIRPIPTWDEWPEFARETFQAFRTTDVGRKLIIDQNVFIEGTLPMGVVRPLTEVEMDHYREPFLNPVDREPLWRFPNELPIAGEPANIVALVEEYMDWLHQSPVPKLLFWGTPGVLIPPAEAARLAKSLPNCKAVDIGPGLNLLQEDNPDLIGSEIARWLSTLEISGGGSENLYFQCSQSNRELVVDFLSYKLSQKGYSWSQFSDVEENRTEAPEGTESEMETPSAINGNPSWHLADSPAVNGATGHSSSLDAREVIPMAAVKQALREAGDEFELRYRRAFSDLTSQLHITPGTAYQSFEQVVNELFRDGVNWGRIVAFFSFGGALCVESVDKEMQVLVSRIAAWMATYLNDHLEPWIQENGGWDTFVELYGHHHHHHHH
Another assay has as its system KMS-12-PE Bcl-2 WT. Briefly: In vitro cytotoxicity CellTiter-Glo 48 h, KMS-12-PE Bcl-2 WT. Conditions: Homo sapiens, KMS-12-PE, C50 = concentration needed to reach 50% of the cellular viability. Type of assay: cell-based. The method in brief:
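Bcl-2 WT- and G101V-expressing KMS-12-PE cells; 48 h treatment at 37 °C, 5% CO2; CellTiter-Glo ATP luminescence; C50 from 11-point curves.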
A general note: In ATP-based viability assays light output follows the ATP content of the culture.

Take `Cc1c(N(C(=O)c2cc(-c3cc4c(cc3C(=O)N3Cc5ccccc5C[C@H]3C)CN(C(=O)Cc3ccc(OCCN(C)C)cc3F)CC4)n(C)c2C)c2ccccc2)cc(C#N)n1C` [Example 213, N-(5-cyano-1,2-dimethyl-pyrrol-3-yl)-5-[2-[2-[4-[2-(dimethylamino)ethoxy]-2-fluoro-phenyl]acetyl]-7-[(3R)-3-methyl-3,4-dihydro-1H-isoquinoline-2-carbonyl]-3,4-dihydro-1H-isoquinolin-6-yl]-1,2-dimethyl-N-phenyl-pyrrole-3-carboxamide]: the Ki at BCL2 WT turned out to be 0.01 nM; on BCL2 G101V [2] it was 0.4 nM; on BCL2 D103Y, 0.03 nM; at BCLXL WT, 1 nM. Besides, the “TR_FRET EKI G101V/WT selectivty ratio” value in the assay on BCL2 G101V [1] is given as 46.6. For the same molecule, the “TR_FRET EKI BCLxL/WT selectivty ratio” value at BCLXL WT stood at 108.9. This molecule showed a 50% inhibitory concentration (IC50) with KMS-12-PE Bcl-2 WT of 0.0053 µM.
Take `Cc1c(C(=O)N(c2ccccc2)c2cc(C#N)n(C(F)F)c2C)cc(-c2cc3c(cc2C(=O)N2Cc4ccccc4C[C@H]2C)CN(C(=O)Cc2ccc(OCCN4CCOCC4)cc2)CC3)n1C` [Example 214, N-[5-cyano-1-(difluoromethyl)-2-methyl-pyrrol-3-yl]-1,2-dimethyl-5-[7-[(3R)-3-methyl-3,4-dihydro-1H-isoquinoline-2-carbonyl]-2-[2-[4-(2-morpholinoethoxy)phenyl]acetyl]-3,4-dihydro-1H-isoquinolin-6-yl]-N-phenyl-pyrrole-3-carboxamide]: the Ki on BCL2 WT came to 0.05 nM; on BCL2 G101V [2], 0.7 nM; at BCL2 D103Y it was 0.12 nM; at BCLXL WT, 8.6 nM. In the assay on BCL2 G101V [1], the “TR_FRET EKI G101V/WT selectivty ratio” value is 13.3. Further, the “TR_FRET EKI BCLxL/WT selectivty ratio” value on BCLXL WT stood at 168.6. For the same molecule, the IC50 with KMS-12-PE Bcl-2 WT came out at 0.0035 µM.
In the case of `Cc1c(N(C(=O)c2cc(-c3cc4c(cc3C(=O)N3Cc5ccccc5C[C@H]3C)CN(C(=O)Cc3ccc(OCCN5CCOCC5)cc3)CC4)n(C)c2C)c2ccccc2)cnn1C(F)F` [Example 215, N-[1-(difluoromethyl)-5-methyl-pyrazol-4-yl]-1,2-dimethyl-5-[7-[(3R)-3-methyl-3,4-dihydro-1H-isoquinoline-2-carbonyl]-2-[2-[4-(2-morpholinoethoxy)phenyl]acetyl]-3,4-dihydro-1H-isoquinolin-6-yl]-N-phenyl-pyrrole-3-carboxamide], the Ki at BCL2 WT was found to be 0.06 nM; on BCL2 G101V [2] it was 4.6 nM; on BCL2 D103Y, 0.13 nM; at BCLXL WT it was 16 nM. The “TR_FRET EKI G101V/WT selectivty ratio” value in the assay on BCL2 G101V [1] was determined as 80.9. For the same molecule, the “TR_FRET EKI BCLxL/WT selectivty ratio” value at BCLXL WT is 280.7. For the same molecule, inhibition in the assay with KMS-12-PE Bcl-2 WT was half-maximal at 0.0147 µM (IC50).
With `Cc1c(C(=O)N(c2ccccc2)c2cnn(C)c2)cc(-c2cc3c(cc2C(=O)N2Cc4ccccc4C[C@H]2C)CN(C(=O)Cc2cccc(C4CCN(C)CC4)c2)CC3)n1C` [Example 216, 1,2-dimethyl-5-[7-[(3R)-3-methyl-3,4-dihydro-1H-isoquinoline-2-carbonyl]-2-[2-[3-(1-methyl-4-piperidyl)phenyl]acetyl]-3,4-dihydro-1H-isoquinolin-6-yl]-N-(1-methylpyrazol-4-yl)-N-phenyl-pyrrole-3-carboxamide], the Ki on BCL2 WT was 0.05 nM; on BCL2 G101V [2], 6.4 nM; on BCL2 D103Y, 0.33 nM; at BCLXL WT, 2.6 nM. Besides, the “TR_FRET EKI G101V/WT selectivty ratio” value in the assay on BCL2 G101V [1] is given as 125.5. On BCLXL WT, the “TR_FRET EKI BCLxL/WT selectivty ratio” value was 50.1. The molecule also came in with an IC50 with KMS-12-PE Bcl-2 WT of 0.0449 µM.
As to `Cc1c(C(=O)N(c2ccccc2)c2cnn(C)c2)cc(-c2cc3c(cc2C(=O)N2Cc4ccccc4C[C@H]2C)CN(C(=O)Cc2cccc(N4CC5(CN(C)C5)C4)c2)CC3)n1C` [Example 217, 1,2-dimethyl-5-[2-[2-[3-(6-methyl-2,6-diazaspiro[3.3]heptan-2-yl)phenyl]acetyl]-7-[(3R)-3-methyl-3,4-dihydro-1H-isoquinoline-2-carbonyl]-3,4-dihydro-1H-isoquinolin-6-yl]-N-(1-methylpyrazol-4-yl)-N-phenyl-pyrrole-3-carboxamide], the Ki at BCL2 WT was found to be 0.02 nM; at BCL2 G101V [2] it was 2 nM; on BCL2 D103Y, 0.09 nM; at BCLXL WT, 0.6 nM. Besides, in the assay with BCL2 G101V [1], the “TR_FRET EKI G101V/WT selectivty ratio” value came out at 88.7. Moreover, the “TR_FRET EKI BCLxL/WT selectivty ratio” value at BCLXL WT was found to be 24.9. The same molecule gave an IC50 in the assay on KMS-12-PE Bcl-2 WT of 0.0453 µM.
`Cc1c(C(=O)N(c2ccccc2)c2cccc(C#N)c2)cc(-c2cc3c(cc2C(=O)N2Cc4ccccc4C[C@H]2C)CN(C(=O)Cc2ccc(OCCN4CCOCC4)cc2)CC3)n1C` [Example 218, N-(3-cyanophenyl)-1,2-dimethyl-5-[7-[(3R)-3-methyl-3,4-dihydro-1H-isoquinoline-2-carbonyl]-2-[2-[4-(2-morpholinoethoxy)phenyl]acetyl]-3,4-dihydro-1H-isoquinolin-6-yl]-N-phenyl-pyrrole-3-carboxamide]: the Ki at BCL2 WT came to 0.03 nM; on BCL2 G101V [2], 1.5 nM; at BCL2 D103Y, 0.08 nM; on BCLXL WT it was 13.8 nM. For the same molecule, the “TR_FRET EKI G101V/WT selectivty ratio” value with BCL2 G101V [1] is 45.3. For the same molecule, the “TR_FRET EKI BCLxL/WT selectivty ratio” value at BCLXL WT was determined as 418.1. This molecule also had an IC50 in the assay on KMS-12-PE Bcl-2 WT of 0.0142 µM.
On to `COc1ncc(N(C(=O)c2cc(-c3cc4c(cc3C(=O)N3Cc5ccccc5C[C@H]3C)CN(C(=O)Cc3ccc(OCCN(C)C)cc3F)CC4)n(C)c2C)c2ccccc2)cc1F` [Example 219, 5-[2-[2-[4-[2-(dimethylamino)ethoxy]-2-fluoro-phenyl]acetyl]-7-[(3R)-3-methyl-3,4-dihydro-1H-isoquinoline-2-carbonyl]-3,4-dihydro-1H-isoquinolin-6-yl]-N-(5-fluoro-6-methoxy-3-pyridyl)-1,2-dimethyl-N-phenyl-pyrrole-3-carboxamide], for which the Ki at BCL2 WT was 0.05 nM; on BCL2 G101V [2], 4.6 nM; on BCL2 D103Y, 0.13 nM; at BCLXL WT, 2.9 nM. Further, in the assay on BCL2 G101V [1], the “TR_FRET EKI G101V/WT selectivty ratio” value is reported as 89.8. In addition, the “TR_FRET EKI BCLxL/WT selectivty ratio” value at BCLXL WT amounted to 57.8. The same molecule yielded an IC50 in the assay with KMS-12-PE Bcl-2 WT of 0.131 µM.
For `Cc1c(C(=O)N(c2ccccc2)c2ccnn2C)cc(-c2cc3c(cc2C(=O)N2Cc4ccccc4C[C@H]2C)CN(C(=O)Cc2ccc(OCCN4CCOCC4)cc2)CC3)n1C` [Example 220, 1,2-dimethyl-5-[7-[(3R)-3-methyl-3,4-dihydro-1H-isoquinoline-2-carbonyl]-2-[2-[4-(2-morpholinoethoxy)phenyl]acetyl]-3,4-dihydro-1H-isoquinolin-6-yl]-N-(2-methylpyrazol-3-yl)-N-phenyl-pyrrole-3-carboxamide], the Ki was 0.13 nM at BCL2 WT, 14.3 nM at BCL2 G101V [2], 0.37 nM at BCL2 D103Y and 42.3 nM on BCLXL WT. For the same molecule, in the assay on BCL2 G101V [1], the “TR_FRET EKI G101V/WT selectivty ratio” value amounted to 109.9. The “TR_FRET EKI BCLxL/WT selectivty ratio” value at BCLXL WT was found to be 325.6. The IC50 with KMS-12-PE Bcl-2 WT is 0.0907 µM.
Turning to `Cc1nn(C)cc1N(C(=O)c1cc(-c2cc3c(cc2C(=O)N2Cc4ccccc4C[C@H]2C)CN(C(=O)Cc2ccc(OCCN(C)C)cc2)CC3)n(C)c1C)c1ccccc1` [Example 221, 5-[2-[2-[4-[2-(dimethylamino)ethoxy]phenyl]acetyl]-7-[(3R)-3-methyl-3,4-dihydro-1H-isoquinoline-2-carbonyl]-3,4-dihydro-1H-isoquinolin-6-yl]-N-(1,3-dimethylpyrazol-4-yl)-1,2-dimethyl-N-phenyl-pyrrole-3-carboxamide], the Ki turned out to be 0.24 nM at BCL2 WT, 19.1 nM on BCL2 G101V [2], 0.53 nM on BCL2 D103Y and 28.3 nM on BCLXL WT. Moreover, the “TR_FRET EKI G101V/WT selectivty ratio” value with BCL2 G101V [1] worked out at 79.5. The “TR_FRET EKI BCLxL/WT selectivty ratio” value at BCLXL WT was 118.0. Besides, in the assay with KMS-12-PE Bcl-2 WT, the IC50 amounted to 0.121 µM.
For `Cc1nn(C)cc1N(C(=O)c1cc(-c2cc3c(cc2C(=O)N2Cc4ccccc4C[C@H]2C)CN(C(=O)Cc2ccc(OCCN(C)C)cc2F)CC3)n(C)c1C)c1ccccc1` [Example 222, 5-[2-[2-[4-[2-(dimethylamino)ethoxy]-2-fluoro-phenyl]acetyl]-7-[(3R)-3-methyl-3,4-dihydro-1H-isoquinoline-2-carbonyl]-3,4-dihydro-1H-isoquinolin-6-yl]-N-(1,3-dimethylpyrazol-4-yl)-1,2-dimethyl-N-phenyl-pyrrole-3-carboxamide], the Ki on BCL2 WT was determined as 0.09 nM; at BCL2 G101V [2], 6.3 nM; on BCL2 D103Y it was 0.19 nM; at BCLXL WT, 12.5 nM. The “TR_FRET EKI G101V/WT selectivty ratio” value in the assay with BCL2 G101V [1] was found to be 69.6. In addition, the “TR_FRET EKI BCLxL/WT selectivty ratio” value at BCLXL WT was 138.9. In the assay on KMS-12-PE Bcl-2 WT, this molecule displayed an IC50 of 0.055 µM.

By IC50 is commonly meant the concentration that gives 50% inhibition.
